Measurements as given in patent US20090252788A1, “Balsalazide formulations and manufacture and use thereof” (Salix Pharmaceuticals, Inc., priority 2005, published 2009).

Legend:
[1] = Stability of standard and sample solutions in dissolution medium; format: physicochemical; conditions: room temperature, unprotected from light
Description: Prepare the stock standard solution in duplicate. For each preparation, transfer approximately 35 mg of Balsalazide Disodium Reference Standard, accurately weighed, to a 200-mL volumetric flask. Add 150 mL of dissolution medium, swirl and briefly sonicate to dissolve the flask contents. Dilute to volume with dissolution medium and mix well. Stock Standard Preparation A should be used for analysis of dissolution samples. Prep B should be used as the standard check preparation. The stock standard preparation is stable for 4 days when stored at room temperature and unprotected from light.
For each of the stock standard preparations, pipet 5.0 mL of the stock solution into a 50-mL volumetric flask, dilute to volume with dissolution medium, and mix well. The working standard preparation is stable for 4 days when stored at room temperature and unprotected from light.
Perform USP Apparatus 2 dissolution testing on six individual capsules utilizing the dissolution conditions listed below. Immediately, filter the samples using a 0.2 μm Gelman Nylon filter or a 10-μm Vankel Full Flow filter, discarding the first 2 mL of sample. Pipet 2.0 mL of the sample filtrate into a 100-mL volumetric flask, dilute to volume with dissolution medium, and mix well (nominal concentration: 0.017 mg Balsalazide Disodium per mL). […]

[2] = Solubility of balsalazide disodium in solvents; format: physicochemical

In the case of `O.O.O=C([O-])CCNC(=O)c1ccc(/N=N/c2ccc(O)c(C(=O)[O-])c2)cc1.[Na+].[Na+]` [Balsalazide disodium, (E)-5-[[-4-[[(2-carboxyethyl)amino]carbonyl]phenyl]azo]-2-hydroxybenzoic acid, disodium salt, dihydrate], the “Time the preparation is stable” value ([1]; stock standard preparation 0.175 mg/mL in dissolution medium) was 4 days, the “Time the preparation is stable” value ([1]; working standard preparation 0.0175 mg/mL in dissolution medium) was 4 days and the Solubility ([2]; in all other organic solvents) was “practically insoluble”. For the same compound, the Solubility ([2]; in ethanol) was “sparingly soluble”, the Solubility ([2]; in isotonic saline) was “freely soluble” and the Solubility ([2]; in methanol) was “sparingly soluble”. For the same compound, the Solubility ([2]; in water) was “freely soluble”.
